# Reference: BindingDB's records for doi:10.1016/s0960-894x(03)00129-x (Wyeth Research, 2003)
# Biological target: T1, Progesterone receptor (Rattus norvegicus, UniProt Q63449)
# T1 sequence (Q63449 whole entry): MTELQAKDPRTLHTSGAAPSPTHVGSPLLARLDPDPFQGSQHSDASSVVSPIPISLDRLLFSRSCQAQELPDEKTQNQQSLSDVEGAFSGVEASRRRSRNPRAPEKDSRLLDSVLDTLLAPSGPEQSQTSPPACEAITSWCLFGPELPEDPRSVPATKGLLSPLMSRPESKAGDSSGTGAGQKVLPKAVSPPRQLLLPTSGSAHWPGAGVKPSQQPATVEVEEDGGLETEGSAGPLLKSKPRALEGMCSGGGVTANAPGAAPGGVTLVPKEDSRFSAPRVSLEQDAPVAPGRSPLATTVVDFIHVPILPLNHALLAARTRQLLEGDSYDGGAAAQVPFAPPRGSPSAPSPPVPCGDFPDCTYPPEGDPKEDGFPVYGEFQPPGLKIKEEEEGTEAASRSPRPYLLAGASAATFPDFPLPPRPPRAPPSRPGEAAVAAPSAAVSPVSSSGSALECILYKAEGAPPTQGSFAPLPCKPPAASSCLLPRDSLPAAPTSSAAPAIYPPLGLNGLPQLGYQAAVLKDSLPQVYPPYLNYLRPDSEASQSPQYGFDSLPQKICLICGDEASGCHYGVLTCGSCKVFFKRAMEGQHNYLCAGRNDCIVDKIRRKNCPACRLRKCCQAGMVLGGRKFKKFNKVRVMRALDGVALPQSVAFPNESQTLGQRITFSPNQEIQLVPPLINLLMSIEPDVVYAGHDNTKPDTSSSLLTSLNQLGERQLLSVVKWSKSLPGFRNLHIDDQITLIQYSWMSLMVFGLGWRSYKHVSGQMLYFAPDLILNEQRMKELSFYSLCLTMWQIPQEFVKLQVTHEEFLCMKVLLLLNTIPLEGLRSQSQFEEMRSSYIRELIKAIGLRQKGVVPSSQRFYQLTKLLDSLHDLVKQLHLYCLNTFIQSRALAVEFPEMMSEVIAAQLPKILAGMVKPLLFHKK
# Experiment: Inhibitory progestational activity on oral administration in uterine C3 model
row,SMILES,IC50
1,S=C1Nc2ccc(-c3cccc(Cl)c3)cc2C12CCCCC2,1120 nM
2,CC(=O)O[C@]1(C(C)=O)CC[C@H]2[C@@H]3C[C@H](C)C4=CC(=O)CC[C@]4(C)[C@H]3CC[C@@]21C [17-Acetoxy-6alpha-methylprogesterone],67.3 nM

# The next lines start with the values.
row,IC50,SMILES
1,92.5 nM,N#Cc1ccc(-c2ccc3c(c2)C2(CCCCC2)C(=S)N3)s1
2,942 nM,N#Cc1cccc(-c2ccc3c(c2)C2(CCCCC2)C(=S)N3)c1
3,7.43 nM,"N#Cc1cc(F)cc(-c2ccc3c(c2)C2(CCCCC2)C(S)=N3)c1 [3-fluoro-5-(2'-thioxo-1',2'-dihydrospiro[cyclohexane-1,3'-indol]-5'-yl)benzonitrile]"
